# Data as given in patent US10206909B2, “3-(1H-pyrrolo[2,3-B]pyridin-2-yl)-1H-pyrazolo[4,3-B]pyridines and therapeutic uses thereof” (Samumed, LLC, priority 2015, dated 2019).
# pEC50: −log10 of the molar value.
# How the values were obtained:
# [1] = system: primary human fibroblasts derived from IPF patients (LL29 cells); test: Inhibition of the fibrotic process: αSMA staining in TGF-β1 treated fibroblasts; type: cell-based; details: Fibroblast; for pEC50: 96 h, LL29 cells, TGF-β1 20 ng/mL, 4 days, % αSMA positive cells; for inhibition at 10 µM: given where EC50 >10 μM, LL29, αSMA, read-out: percent inhibition at 10 μM
# Outline: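 IPF-derived LL29 fibroblasts in F12 with 1% FBS dosed with compound (11-point, 10 μM to 1.87 nM, 0.1% DMSO), then 20 ng/mL TGF-β1 after 1 h, and cultured 4 days at 37 °C. αSMA-positive cell fraction imaged after excluding SYTOX-positive cells, normalized to TGF-β1/DMSO wells; EC50 by non-linear regression, % inhibition at 10 μM if EC50 >10 μM.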
# [2] = system: primary human mesenchymal stem cells (hMSCs); test: Chondrogenesis induction in mesenchymal stem cells (nodule count); type: cell-based; details: 144 h, 6 days; for Emax: relative to TGF-β3 (10 ng/mL) positive control, read-out: Max. Activity as % TGF-β3 activity; for EC50: concentration required to induce 50% levels of chondrogenesis vs TGF-β3, read-out: Conc (nM) of 50% TGF-β3 activity
# Protocol: Representative compounds were screened using primary human mesenchymal stem cells (hMSCs) to determine their ability to induce chondrogenesis (process by which cartilage is developed).
# Human Mesenchymal Stem Cell Culture: Primary human mesenchymal stem cells (hMSCs) were purchased from Lonza (Walkersville, Md.) and expanded in Mesenchymal Stem Cell Growth Media (Lonza). Cells between passage 3 and 6 were used for the experiments.
# Compound Screening: Each compound was dissolved in DMSO as a 10 mM stock and used to prepare compound source plates. Serial dilution (1:3, 6-point dose-response curves from 2700 nM to 10 nM) and compound transfer was performed using the ECHO 550 (Labcyte, Sunnyvale, Calif.) into 96-well clear bottom assay plates (Greiner Bio-One) with appropriate DMSO backfill for a final DMSO concentration of 0.03%. hMSCs were plated at 20,000 cells/well in 250 μL/well Incomplete Chondrogenic Induction Medium (Lonza; DMEM, dexamethasone, ascorbate, insulin-transferrin-selenium [ITS supplement], gentamycin-amphotericin [GA-1000], sodium pyruvate, proline and L-glutamine). TGF-β3 (10 ng/mL) was used as a positive control for differentiation while negative control wells were treated with 75 nL DMSO for normalization and calculating EC50 values. Cells were incubated at 37° C. and 5% CO2 for 6 days. To image chondrogenic nodules, the cells were fixed using 4% formaldehyde (Electron Microscopy Sciences), and stained with 2 μg/mL Rhodamine B (Sigma-Aldrich) and 20 μM Nile Red (Sigma-Aldrich) [Johnson K., et. al, A Stem Cell-Based Approach to Cartilage Repair, Science, (2012). 336(6082), 717-721]. The nodules imaged (4 images per well at 4× magnification) by excitation at 531 nm and emission at 625 nm and quantified using the CellInsight CX5 (Thermo Scientific). Number of nodules in each well was normalized to the average of 3 DMSO treated wells on the same plate using Excel (Microsoft Inc.). The normalized averages (fold change over DMSO) of 3 replicate wells for each compound concentration were calculated. Due to solubility limitations of some of the compounds, curve fitting was incomplete leading to inaccurate EC50 determinations.
# Using TGF-β3 as a positive control, the concentration of representative compounds required to induce 50% levels of chondrogenesis is reported. In addition, the maximum activity of each compound and the respective dose that each compound reached maximum chondrogenesis activity is reported.
SMILES,EC50 [2] [nM],pEC50 [1],Emax [2] [%],inhibition at 10 µM [1] [%]
"c1cc(-c2ccnc3[nH]c(-c4n[nH]c5ccc(-c6cncc(OCCN7CCCC7)c6)nc45)cc23)ccn1 [Compound 578, 3-(4-(Pyridin-4-yl)-1H-pyrrolo[2,3-b]pyridin-2-yl)-5-(5-(2-(pyrrolidin-1-yl)ethoxy)pyridin-3-yl)-1H-pyrazolo[4,3-b]pyridine]",,5.91,40,
"CC(C)Nc1cncc(-c2ccc3[nH]nc(-c4cc5c(-c6cccnc6)ccnc5[nH]4)c3n2)c1 [Compound 96, N-Isopropyl-5-(3-(4-(pyridin-3-yl)-1H-pyrrolo[2,3-b]pyridin-2-yl)-1H-pyrazolo[4,3-b]pyridin-5-yl)pyridin-3-amine]",,< 5.00,47,0
"CN(C)Cc1cncc(-c2ccc3[nH]nc(-c4cc5cccnc5[nH]4)c3n2)c1 [Compound 265, 1-(5-(3-(1H-Pyrrolo[2,3-b]pyridin-2-yl)-1H-pyrazolo[4,3-b]pyridin-5-yl)pyridin-3-yl)-N,N-dimethylmethanamine]",,5.49,37,
"Nc1cncc(-c2ccc3[nH]nc(-c4cc5c(-c6ccncc6)ccnc5[nH]4)c3n2)c1 [Compound 115, 5-(3-(4-(Pyridin-4-yl)-1H-pyrrolo[2,3-b]pyridin-2-yl)-1H-pyrazolo[4,3-b]pyridin-5-yl)pyridin-3-amine]",,< 5.00,27,28.8
"CN1CCN(c2ccnc3[nH]c(-c4n[nH]c5ccc(-c6cncc(NC(=O)c7ccccc7)c6)nc45)cc23)CC1 [Compound 235, N-(5-(3-(4-(4-Methylpiperazin-1-yl)-1H-pyrrolo[2,3-b]pyridin-2-yl)-1H-pyrazolo[4,3-b]pyridin-5-yl)pyridin-3-yl)benzamide]",10,5.49,62,
"c1ncc(-c2ccc3[nH]nc(-c4cc5c(N6CCCCC6)ccnc5[nH]4)c3n2)cn1 [Compound 195, 3-(4-(Piperidin-1-yl)-1H-pyrrolo[2,3-b]pyridin-2-yl)-5-(pyrimidin-5-yl)-1H-pyrazolo[4,3-b]pyridine]",10,5.69,100,

# Continued, in another order:
EC50 [2] [nM],SMILES,pEC50 [1],Emax [2] [%],inhibition at 10 µM [1] [%]
10,"O=C(CC1CCNCC1)Nc1cncc(-c2ccc3[nH]nc(-c4cc5c(-c6ccoc6)ccnc5[nH]4)c3n2)c1 [Compound 689, N-(5-(3-(4-(Furan-3-yl)-1H-pyrrolo[2,3-b]pyridin-2-yl)-1H-pyrazolo[4,3-b]pyridin-5-yl)pyridin-3-yl)-2-(piperidin-4-yl)acetamide]",5.66,102,
10,"CN(C)Cc1cncc(-c2ccc3[nH]nc(-c4cc5c(N6CCCCC6)ccnc5[nH]4)c3n2)c1 [Compound 181, N,N-Dimethyl-1-(5-(3-(4-(piperidin-1-yl)-1H-pyrrolo[2,3-b]pyridin-2-yl)-1H-pyrazolo[4,3-b]pyridin-5-yl)pyridin-3-yl)methanamine]",5.11,82,
300,"c1csc(-c2ccnc3[nH]c(-c4n[nH]c5ccc(-c6cncc(OC7CCNCC7)c6)nc45)cc23)c1 [Compound 704, 5-(5-(Piperidin-4-yloxy)pyridin-3-yl)-3-(4-(thiophen-2-yl)-1H-pyrrolo[2,3-b]pyridin-2-yl)-1H-pyrazolo[4,3-b]pyridine]",5.74,51,
10,"CCCCC(=O)Nc1cncc(-c2ccc3[nH]nc(-c4cc5c(N6CCCCC6)ccnc5[nH]4)c3n2)c1 [Compound 187, N-(5-(3-(4-(Piperidin-1-yl)-1H-pyrrolo[2,3-b]pyridin-2-yl)-1H-pyrazolo[4,3-b]pyridin-5-yl)pyridin-3-yl)pentanamide]",5.31,92,
100,"c1cc(-c2ccnc3[nH]c(-c4n[nH]c5ccc(-c6cncc(CNCC7CCCC7)c6)nc45)cc23)ccn1 [Compound 137, 1-Cyclopentyl-N-((5-(3-(4-(pyridin-4-yl)-1H-pyrrolo[2,3-b]pyridin-2-yl)-1H-pyrazolo[4,3-b]pyridin-5-yl)pyridin-3-yl)methyl)methanamine]",< 5.00,67,23.8
